The record followed here is patent US20030206953A1, “Aggregates of spherical multivalent metal alginate microparticles and methods of making them” (priority 1997, published 2003).

A short description of data set [1]: physchem. The settings on record: 20 °C, water, thermodynamic from solid.
Experimental: (§1) As used herein, the term “solubility” in accordance with the Japanese Pharmacopoeia (the 13th Amendment) refers to the degree of dissolution of a medicament in a solvent within 30 minutes when 1 g of the medicament is added to the solvent and mixing them with vigorous shaking at intervals of 5 minutes at 20° C.±5° C. In the present specification, the solubility is evaluated in accordance with this method. When the amount (ml) of water required to dissolve 1 g of a medicament is 30 ml or more, the solubility of the medicament represents the grades of “slightly soluble” or “hardly soluble”.
Data set [2] in a line: Solubility in water per Japanese Pharmacopoeia (13th Amendment). The settings on record: 20 °C, thermodynamic from solid.
Experimental: as §1
Data set [3] is described as follows: Dissolution test, paddle method, second solution (artificial intestinal juice, pH 6.8). As to conditions: artificial intestinal juice (second solution, pH 6.8); within two hours; FIG. 3. The class given is physicochemical. The text has this:
As used herein, the term “artificial intestinal juice (the second solution, pH 6.8)” refers to a phosphate buffer of pH 6.8 as described in the Japanese Pharmacopoeia (the 13th Amendment), the section of dissolution test, the second method (paddle method). As used herein, the term “dissolution rate” refers to a value given by dividing the actual elution concentration of a slightly soluble medicament by the calculated elution concentration and expressing the resultant value as a percent. Here, the term “calculated elution concentration” refers to the concentration given when hypothesizing that the entire slightly soluble medicament added to the second solution is dissolved. For example, the calculated elution concentration of a slightly soluble medicament given when 5 g of the medicament is added to 500 ml of the second solution is 10 mg/ml. In this case, when the actual elution concentration is 5 mg/ml, the dissolution rate is 50%.
In general, the dissolution rate of a slightly soluble medicament by itself is slow in the artificial intestinal juice, and the saturated dissolution amount is small. Therefore, the saturated dissolution concentration tends to be smaller than the calculated concentration. […]

Values after ≈ are worked out from the molar mass of the structure shown. A value given as a limit tells only on which side of the number the result lay.

What is called solubility is the dissolved amount per volume that the medium holds. Low readings indicate little dissolved substance, high ones much dissolved substance. Consider `CC(=O)Nc1ccc(O)cc1` [Acetaminophen, acetaminophen], for which the solubility at 30 min in data set [1] amounted to 13100 µg/mL (≈ 86.7 mM).

Compound `CCOc1ccccc1C(N)=O` [Ethenzamide] showed a solubility at 30 min in data set [2] below 100 µg/mL.

Take `CC(=O)Oc1ccccc1C(=O)O` [Aspirin, aspirin]: in data set [2], the solubility at 30 min worked out at 3630 µg/mL (≈ 20.1 mM).

On to `COc1ccc2c(c1)c(CC(=O)O)c(C)n2C(=O)c1ccc(Cl)cc1` [Indomethacin, indomethacin], for which the dissolution rate result in data set [3] is listed as “less than 40%”. The solubility at 30 min in data set [1] was below 100 µg/mL.
